Source: patent US8137509B2, “Asymmetric synthesis of rocaglamides via enantioselective photocycloaddition mediated by chiral brønsted acids” (Trustees of Boston University, priority 2006, dated 2012)

Key:
human cancer cells = details: compared with TAXOL; cited from earlier work

melting point [°C]	SMILES	cytotoxic activity (human cancer cells)
	COC(=O)[C@H]1[C@@H](O)[C@@]2(O)c3c(OC)cc(O[C@@H]4O[C@@H]([C@H](O)CO)CO[C@H]4OC)cc3O[C@@]2(c2ccc(OC)cc2)[C@@H]1c1ccccc1 [silvestrol B, silvestrol]	comparable to the anticancer drug TAXOL®
83 to 85	COC(=O)C1C(c2ccccc2)[C@]2(c3ccc(OC)cc3)Oc3cc(OC)cc(OC)c3[C@@]1(O)C2=O (some centres unmarked)	
